{"source": "patent US6844435B2", "about": "“Heterocyclic compounds useful as inhibitors of tyrosine kinases” (Boehringer Ingelheim Pharmaceuticals, Inc., priority 2000, dated 2005)"}
{"compound": "Cn1c(Nc2c(Cl)cccc2Cl)nc2ccc3nc(C4=CC5C=CC4N5)[nH]c(=O)c3c21", "note": "(stereo not shown)", "melting point": "> 300 °C"}
{"compound": "CCn1c(Nc2c(Cl)cccc2Cl)nc2ccc3nc[nH]c(=O)c3c21", "note": "[Example 5, 2-(2,6-Dichlorophenylamino)-1-ethyl-1,8-dihydro-9H-imidazo[4,5-f]quinazoline-9-one]", "melting point": "> 300 °C"}
{"compound": "CC(=O)OCC(=O)N1CCN(S(=O)(=O)c2cccc(-c3nc4ccc5nc(Nc6c(Cl)cccc6Cl)n(C)c5c4c(=O)[nH]3)c2)CC1", "note": "[Example 85]", "melting point": "246 °C (dec.)"}
{"compound": "Cn1c(Nc2c(Cl)cccc2Cl)nc2ccc3nc(-c4ccc(S(=O)(=O)N5CCN(C(=O)OC(C)(C)C)CC5)cc4)[nH]c(=O)c3c21", "note": "[Example 96]", "melting point": "190 °C"}
{"compound": "Cn1c(Nc2c(Cl)cccc2Cl)nc2ccc3nc(-c4cccc(S(=O)(=O)N5CCNCC5)c4)[nH]c(=O)c3c21", "note": "[Example 68]", "melting point": "210 °C"}
{"compound": "Cn1c(Nc2c(Cl)cccc2Cl)nc2ccc3nc(C4=CC(N5CCN(C(=O)OC(C)(C)C)CC5)CC4)[nH]c(=O)c3c21", "note": "(stereo not shown) [Example 65]", "melting point": "168 to 170 °C"}
{"compound": "Cn1c(Nc2c(Cl)cccc2Cl)nc2ccc3nc(-c4nc5ccccc5[nH]4)[nH]c(=O)c3c21", "note": "[Example 43]", "melting point": "> 300 °C"}
{"compound": "Cn1c(Nc2c(Cl)cccc2Cl)nc2ccc3nc(Cc4ccccc4)[nH]c(=O)c3c21", "note": "[Example 34]", "melting point": "> 250 °C (dec.)"}
{"compound": "Cn1c(Nc2c(Cl)cccc2Cl)nc2ccc3nc(C4=CCC(C#N)C4)[nH]c(=O)c3c21", "note": "(stereo not shown) [Example 69]", "melting point": "> 295 °C (dec.)"}
{"compound": "C/C(=C\\c1cccc(N)c1)c1nc2ccc3nc(Nc4c(Cl)cccc4Cl)n(C)c3c2c(=O)[nH]1", "note": "[Example 84]", "melting point": "> 300 °C (dec.)"}
{"compound": "C/C(=C\\c1cccc(CN)c1)c1nc2ccc3nc(Nc4c(Cl)cccc4Cl)n(C)c3c2c(=O)[nH]1", "note": "[Example 89]", "melting point": "197 to 205 °C"}
{"compound": "Cn1c(Nc2c(Cl)cccc2Cl)nc2ccc3nc(C4=CC5C=CC4N5C(=O)OCc4ccccc4)[nH]c(=O)c3c21", "note": "(stereo not shown)", "melting point": "> 275 °C (dec.)"}
{"compound": "Cn1c(Nc2c(Cl)cccc2Cl)nc2ccc3nc(C4=CC5CN(C(=O)OC(C)(C)C)CC5C4)[nH]c(=O)c3c21", "note": "(stereo not shown) [Example 94]", "melting point": "210 to 215 °C"}
{"compound": "Cn1c(Nc2c(Cl)cccc2Cl)nc2ccc3nc(-c4cccc(N)c4)[nH]c(=O)c3c21", "note": "[Example 19]", "melting point": "200 °C (dec.)"}
{"compound": "C/C(=C\\c1cc(N/C(=N\\C(=O)OC(C)(C)C)NC(=O)OC(C)(C)C)cc(N/C(=N\\C(=O)OC(C)(C)C)NC(=O)OC(C)(C)C)c1)c1nc2ccc3nc(Nc4c(Cl)cccc4Cl)[nH]c3c2c(=O)[nH]1", "note": "[Example 103]", "melting point": "> 300 °C"}
{"compound": "Cn1c(Nc2c(Cl)cccc2Cl)nc2ccc3nc(C4=CC(O)CC4)[nH]c(=O)c3c21", "note": "(stereo not shown) [Example 66]", "melting point": "285 °C"}
{"compound": "Cn1c(Nc2c(Cl)cccc2Cl)nc2ccc3nc(Nc4ccccc4)[nH]c(=O)c3c21", "note": "[Example 31]", "melting point": "185 to 192 °C"}
{"compound": "CC(C)=Cc1nc2ccc3nc(Nc4c(Cl)cccc4Cl)n(C)c3c2c(=O)[nH]1", "note": "[Example 28]", "melting point": "> 300 °C"}
{"compound": "Cn1c(Nc2c(Cl)cccc2Cl)nc2ccc3nc(-c4ncc[nH]4)[nH]c(=O)c3c21", "note": "[Example 25]", "melting point": "> 300 °C"}
